The record followed here is ChEMBL document CHEMBL5247648, “Design, Synthesis, and Anti-Cancer Evaluation of Novel Cyclic Phosphate Prodrug of Gemcitabine” (J Med Chem, 2023).

Where only a bound is given, the exact number is not on record here.

For one assay, the system named is BXPC-3. Description: Antiproliferative activity against human BXPC-3 cells assessed as inhibition of cell proliferation treated for 72 hrs by resazurin dye-based fluorescence assay. Particulars: BXPC-3, 72 h. It counts as functional. For orientation: Resazurin is reduced to fluorescent resorufin, in cell work by metabolically active cells.
As to `C[C@H](NP(=O)(OC[C@H]1O[C@@H](n2ccc(N)nc2=O)C(F)(F)[C@@H]1O)Oc1ccccc1)C(=O)OC1CCCCC1` (stereo partly drawn), the IC50 was more than 1000 nM.
The same measure, in the same setting: then `COC(=O)[C@H](C)NP(=O)(OC[C@H]1O[C@@H](n2ccc(N)nc2=O)C(F)(F)[C@@H]1O)Oc1ccccc1` (stereo partly drawn), with more than 1000 nM; and `CCC(=O)Nc1ccn([C@@H]2O[C@@H]3COP(=O)(OCC(=O)OCc4ccccc4)O[C@H]3C2(F)F)c(=O)n1` (stereo partly drawn), with 908 nM; and `CC(C)OC(=O)[C@H](C)NP(=O)(OC[C@H]1O[C@@H](n2ccc(N)nc2=O)C(F)(F)[C@@H]1O)Oc1ccccc1` (stereo partly drawn), with more than 1000 nM.
For the compound `COC(=O)COP(=O)(N[C@@H](C)C(=O)OCc1ccccc1)OC[C@H]1O[C@@H](n2ccc(N)nc2=O)C(F)(F)[C@@H]1O` (stereo partly drawn), the IC50 was determined as 35.2 nM.
Turning to `CCCC(CCC)C(=O)Nc1ccn([C@@H]2O[C@H](COP(=O)(N[C@@H](C)C(=O)OCc3ccccc3)Oc3ccccc3)[C@@H](O)C2(F)F)c(=O)n1` (stereo partly drawn), the half-maximal inhibitory concentration (IC50) was more than 1000 nM.
The same measure, in the same setting: then `CCCC(CCC)C(=O)Nc1ccn([C@@H]2O[C@H](COP(=O)(N[C@@H](C)C(=O)OC(C)C)OCC(=O)OC)[C@@H](O)C2(F)F)c(=O)n1` (stereo partly drawn), with more than 1000 nM; and `Nc1ccn([C@@H]2O[C@@H]3COP(=O)(OCCCC(=O)OCc4ccccc4)O[C@H]3C2(F)F)c(=O)n1` (stereo partly drawn), with 78.3 nM.
`Nc1ccn([C@@H]2O[C@@H]3COP(=O)(OCCCCC(=O)OCc4ccccc4)O[C@H]3C2(F)F)c(=O)n1` (stereo partly drawn): the IC50 came to 213 nM.
With `COC(=O)COP(=O)(N[C@@H](C)C(=O)OC(C)C)OC[C@H]1O[C@@H](n2ccc(N)nc2=O)C(F)(F)[C@@H]1O` (stereo partly drawn), the IC50 stood at 40.5 nM.

The next assay deals with MM1.S. As to the kind of experiment: Antiproliferative activity against human MM1.S cells assessed as inhibition of cell proliferation treated for 72 hrs by resazurin dye-based fluorescence assay. It counts as functional.
Details: not given
For the compound `C[C@H](NP(=O)(OC[C@H]1O[C@@H](n2ccc(N)nc2=O)C(F)(F)[C@@H]1O)Oc1ccccc1)C(=O)OC1CCCCC1` (stereo partly drawn), the IC50 was found to be 130 nM.
Regarding `COC(=O)[C@H](C)NP(=O)(OC[C@H]1O[C@@H](n2ccc(N)nc2=O)C(F)(F)[C@@H]1O)Oc1ccccc1` (stereo partly drawn), the IC50 amounted to 110 nM.
As for `CC(C)OC(=O)[C@H](C)NP(=O)(OC[C@H]1O[C@@H](n2ccc(N)nc2=O)C(F)(F)[C@@H]1O)Oc1ccccc1` (stereo partly drawn), the IC50 worked out at 500 nM.
On the same count and under the same terms, then `COC(=O)COP(=O)(N[C@@H](C)C(=O)OCc1ccccc1)OC[C@H]1O[C@@H](n2ccc(N)nc2=O)C(F)(F)[C@@H]1O` (stereo partly drawn), with 4.1 nM.
For `CCCC(CCC)C(=O)Nc1ccn([C@@H]2O[C@H](COP(=O)(N[C@@H](C)C(=O)OCc3ccccc3)Oc3ccccc3)[C@@H](O)C2(F)F)c(=O)n1` (stereo partly drawn), the 50% inhibitory concentration (IC50) was more than 1000 nM.
Consider `CCCC(CCC)C(=O)Nc1ccn([C@@H]2O[C@H](COP(=O)(N[C@@H](C)C(=O)OC(C)C)OCC(=O)OC)[C@@H](O)C2(F)F)c(=O)n1` (stereo partly drawn), for which the IC50 was more than 1000 nM.
Still for that read-out and setting: then `COC(=O)COP(=O)(N[C@@H](C)C(=O)OC(C)C)OC[C@H]1O[C@@H](n2ccc(N)nc2=O)C(F)(F)[C@@H]1O` (stereo partly drawn), with 4.7 nM.

The test system of the next assay is MV4-11. As to the kind of experiment: Antiproliferative activity against human MV4-11 cells assessed as inhibition of cell proliferation treated for 72 hrs by resazurin dye-based fluorescence assay. It counts as functional. As to conditions: MV4-11, 72 h.
In the case of `COC(=O)COP(=O)(N[C@@H](C)C(=O)OCc1ccccc1)OC[C@H]1O[C@@H](n2ccc(N)nc2=O)C(F)(F)[C@@H]1O` (stereo partly drawn), the IC50 stood at 5.8 nM.
Same read-out and setting: then `COC(=O)COP(=O)(N[C@@H](C)C(=O)OC(C)C)OC[C@H]1O[C@@H](n2ccc(N)nc2=O)C(F)(F)[C@@H]1O` (stereo partly drawn), with 3.5 nM.

The next assay has as its system MIA PaCa-2. Description: Antiproliferative activity against human MIA PaCa-2 cells assessed as inhibition of cell proliferation treated for 72 hrs by resazurin dye-based fluorescence assay. The assay is classed as functional. As to conditions: MIA PaCa-2, 72 h.
On to `C[C@H](NP(=O)(OC[C@H]1O[C@@H](n2ccc(N)nc2=O)C(F)(F)[C@@H]1O)Oc1ccccc1)C(=O)OC1CCCCC1` (stereo partly drawn), for which the concentration for half-maximal inhibition (IC50) amounted to 540 nM.
Same read-out and setting: then `COC(=O)[C@H](C)NP(=O)(OC[C@H]1O[C@@H](n2ccc(N)nc2=O)C(F)(F)[C@@H]1O)Oc1ccccc1` (stereo partly drawn), with 553 nM; and `CCC(=O)Nc1ccn([C@@H]2O[C@@H]3COP(=O)(OCC(=O)OCc4ccccc4)O[C@H]3C2(F)F)c(=O)n1` (stereo partly drawn), with 530 nM.
For the compound `CC(C)OC(=O)[C@H](C)NP(=O)(OC[C@H]1O[C@@H](n2ccc(N)nc2=O)C(F)(F)[C@@H]1O)Oc1ccccc1` (stereo partly drawn), the half-inhibitory concentration (IC50) was found to be 710 nM.
In the case of `COC(=O)COP(=O)(N[C@@H](C)C(=O)OCc1ccccc1)OC[C@H]1O[C@@H](n2ccc(N)nc2=O)C(F)(F)[C@@H]1O` (stereo partly drawn), the IC50 turned out to be 27 nM.
Regarding `CCCC(CCC)C(=O)Nc1ccn([C@@H]2O[C@H](COP(=O)(N[C@@H](C)C(=O)OCc3ccccc3)Oc3ccccc3)[C@@H](O)C2(F)F)c(=O)n1` (stereo partly drawn), the 50% inhibitory concentration (IC50) is more than 1000 nM.
Consider `CCCC(CCC)C(=O)Nc1ccn([C@@H]2O[C@H](COP(=O)(N[C@@H](C)C(=O)OC(C)C)OCC(=O)OC)[C@@H](O)C2(F)F)c(=O)n1` (stereo partly drawn), for which the IC50 is more than 1000 nM.
Turning to `Nc1ccn([C@@H]2O[C@@H]3COP(=O)(OCCCC(=O)OCc4ccccc4)O[C@H]3C2(F)F)c(=O)n1` (stereo partly drawn), the concentration for half-maximal inhibition (IC50) amounted to 35.7 nM.
Still for that read-out and setting: then `Nc1ccn([C@@H]2O[C@@H]3COP(=O)(OCCCCC(=O)OCc4ccccc4)O[C@H]3C2(F)F)c(=O)n1` (stereo partly drawn), with 50.9 nM.
Still for that read-out and setting: then `COC(=O)COP(=O)(N[C@@H](C)C(=O)OC(C)C)OC[C@H]1O[C@@H](n2ccc(N)nc2=O)C(F)(F)[C@@H]1O` (stereo partly drawn), with 29.4 nM.

In the next assay the test system is Huh-7. As to the kind of experiment: Antiproliferative activity against human Huh-7 cells assessed as inhibition of cell proliferation treated for 72 hrs by resazurin dye-based fluorescence assay. The assay is classed as functional. As to conditions: Huh-7, 72 h.
Turning to `COC(=O)COP(=O)(N[C@@H](C)C(=O)OCc1ccccc1)OC[C@H]1O[C@@H](n2ccc(N)nc2=O)C(F)(F)[C@@H]1O` (stereo partly drawn), the IC50 was 28.2 nM.
Same read-out and setting: then `COC(=O)COP(=O)(N[C@@H](C)C(=O)OC(C)C)OC[C@H]1O[C@@H](n2ccc(N)nc2=O)C(F)(F)[C@@H]1O` (stereo partly drawn), with 41.1 nM.

The test system of a further assay is JeKo-1. As to the kind of experiment: Antiproliferative activity against human JeKo-1 cells assessed as inhibition of cell proliferation treated for 72 hrs by resazurin dye-based fluorescence assay. It counts as functional. As to conditions: JeKo-1, 72 h.
Regarding `COC(=O)COP(=O)(N[C@@H](C)C(=O)OCc1ccccc1)OC[C@H]1O[C@@H](n2ccc(N)nc2=O)C(F)(F)[C@@H]1O` (stereo partly drawn), the IC50 amounted to 22.6 nM.
Still for that read-out and setting: to `COC(=O)COP(=O)(N[C@@H](C)C(=O)OC(C)C)OC[C@H]1O[C@@H](n2ccc(N)nc2=O)C(F)(F)[C@@H]1O` (stereo partly drawn) belongs 26.2 nM.

By IC50 is commonly meant the midpoint of a concentration-inhibition curve.
